Measurements: patent US20200129561A1, “DELIVERY OF AUTOLOGOUS CELLS COMPRISING MATRIX METALLOPROTEINASE FOR TREATMENT OF SCLERODERMA” (Intrexon Corporation, priority 2017, published 2020)

Assay: Nonclinical studies of veledimex control of target protein expression: tissue level of veledimex
Type: in vivo
Details: oral administration; other target proteins
Excerpt: MMP-1 expression levels were undetected after 10 days post-injection.

levels of veledimex in the tissue at which maximal expression of target protein can be achieved: approximately 250 ng/mL
SMILES: CCC[C@@H](N(NC(=O)c1cccc(OC)c1CC)C(=O)c1cc(C)cc(C)c1)C(C)(C)C [veledimex, 3,5-dimethyl-benzoic acid (R)—N-(1-tert-butyl-butyl)-N′-(2-ethyl-3-methoxy-benzoyl)-hydrazide]
